Test results published in patent publication US20080194467A1, “CANCER TREATMENT METHODS USING CADHERIN ANTAGONISTS IN COMBINATION WITH ANTICANCER AGENTS” (ADHEREX TECHNOLOGIES, INC., priority 2006, published 2008).
Read-outs that look alike come from different tables or passages of the source. Bridge positions count the residues as written; N and C are the ends.

Experiments:
[1] = system: human melanoma cell line DM738; type: in vivo
[2] = system: human melanoma xenografts (DM366 and DM738); experiment: Isolated limb infusion (ILI) of melphalan with or without systemic ADH-1 in nude rats bearing human melanoma xenografts; type: in vivo; details: day 60 after 15 minute regional infusion into the hind limb
A375 tumors = experiment: In vivo combination therapy of A375 tumors, ADH-1 with temozolomide; details: ADH-1 100 mg/kg i.p. qdx8; TMZ 100 mg/kg p.o. qdx5; administered separately
Procedure: 100 mg/kg of TMZ was administered p.o. on a qdx5 schedule starting on Day 4. For the combination groups, TMZ was always administered 1 hour after the ADH-1 dose. A375 tumors were resistant to both TMZ and ADH-1 when administered separately.

[3] = system: Ovarian Tumor Cell Line A2780; details: paclitaxel 30 mg/kg i.v. qodx5; ADH-1 100 mg/kg i.p. Day 1 then b.i.d.x20
Procedure: In this set of experiments, 100 mg/kg of ADH-1 was administered i.p. as a single dose on Day 1 and then […].) for the duration of the treatment period. 30 mg/kg paclitaxel was administered i.v. on a qodx5 schedule starting on Day 2. For the combination groups, paclitaxel was always administered 5 minutes after the morning ADH-1 dose.

## N[C@@H](Cc1ccc(N(CCCl)CCCl)cc1)C(=O)O [melphalan]
[1]; rat, in vivo
  anti-tumor response: no detectable anti-tumor response
[2]
  increase in tumor volume: 439.4%

## N—Ac-CHAVC-NH2 (disulfide 1-5 (inferred)) [ADH-1]
A375 tumors
  tumor response to treatment (resistance): resistant
[1]; DM738 tumors, single ILI of melphalan and/or systemic ADH-1, compared to vehicle control
  anti-tumor response: no detectable anti-tumor response

## CC(=O)O[C@H]1C(=O)[C@@]2(C)[C@H]([C@H](OC(=O)c3ccccc3)[C@]3(O)C[C@H](OC(=O)[C@H](O)[C@@H](NC(=O)c4ccccc4)c4ccccc4)C(C)=C1C3(C)C)[C@]1(OC(C)=O)CO[C@@H]1C[C@@H]2O [paclitaxel]
[3]
  complete cures out of 10 animals: 10%
  delay in tumor growth: transient delay in tumor growth
